Test results published in ChEMBL document CHEMBL1201862, “PubChem BioAssay data set” (2004).
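96-well plates; 48 h exposure; 5 concentrations. Endpoints by linear interpolation between flanking doses. Not reached: highest tested concentration assigned. GI50 = concentration required for 50% inhibition of growth.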 Activity calls are given as the source filed them. Cut-off read from the data, not from the text of the source: active = GI50 up to about 1.1 µM and inactive = higher.

Experiments:
Test in all cases: NCI tumour cell line growth inhibition, 48 h
DLD-1 = system: DLD-1
DMS-114 = system: DMS-114
HOP-18 = system: HOP-18
KM-20L2 = system: KM-20L2
LXFL 529 = system: LXFL 529
RXF 631 = system: RXF 631
SNB-78 = system: SNB-78
DMS-273 = system: DMS-273
XF498 = system: XF498

Row | Structure (SMILES) | GI50 (DLD-1) | GI50 (DMS-114) | GI50 (HOP-18) | GI50 (KM-20L2) | GI50 (LXFL 529) | GI50 (RXF 631) | GI50 (SNB-78) | GI50 (DMS-273) | GI50 (XF498)
1 | O=C1C(Br)=CC2(C=C1Br)CCNC1=C2C(=O)c2ccccc2C1=O | 9.25 µM (inactive) | 5.7 µM (inactive) | 32.2 µM (inactive) | 7.41 µM (inactive) | 5.37 µM (inactive) | 5.69 µM (inactive) | 11.2 µM (inactive) | – | –
2 | CSc1ccc2c(cc1=O)[C@@H](NC(=O)c1ccc(F)cc1)CCc1cc(O)c(O)c(O)c1-2 | > 100 µM (inactive) | > 100 µM (inactive) | > 100 µM (inactive) | > 100 µM (inactive) | > 100 µM (inactive) | > 100 µM (inactive) | > 100 µM (inactive) | > 100 µM (inactive) | –
3 | COc1ccc2c(=O)c(-c3cc(OC)c(OC)cc3OC)coc2c1 | 3.95 µM (inactive) | 3.02 µM (inactive) | – | 2.05 µM (inactive) | 6.27 µM (inactive) | 5.4 µM (inactive) | 4.21 µM (inactive) | 1.85 µM (inactive) | 2.58 µM (inactive)
4 | CCCCCCCCCCCCCCCCP(=O)(OC)OC | 17.5 µM (inactive) | 16.1 µM (inactive) | 15 µM (inactive) | 22.4 µM (inactive) | 15.8 µM (inactive) | 16.9 µM (inactive) | 17.7 µM (inactive) | 14.5 µM (inactive) | 13.1 µM (inactive)
5 | COc1cccc(C2c3cc4c(cc3OC(O)(CO)C2C(=O)O)OCO4)c1.COc1cccc(C2c3cc4c(cc3OC3(O)COC(=O)C23)OCO4)c1 (centres undefined) | 48.9 µM (inactive) | 49.4 µM (inactive) | > 100 µM (inactive) | > 100 µM (inactive) | 57.9 µM (inactive) | 75.5 µM (inactive) | – | 65.3 µM (inactive) | –
6 | COc1ccccc1NC(=O)C(CC(C(=O)Nc1ccccc1OC)/C(C)=N/NC(=O)c1ccccc1O)/C(C)=N/NC(=O)c1ccccc1O (centres undefined) | 57.5 µM (inactive) | 70.8 µM (inactive) | – | > 100 µM (inactive) | 66.4 µM (inactive) | 69.8 µM (inactive) | > 100 µM (inactive) | > 100 µM (inactive) | > 100 µM (inactive)
7 | COc1ccc2c(c1)c1ccc3c(c1n2C)C(=O)C=CC3=O | 7.4 µM (inactive) | 20.7 µM (inactive) | 12.2 µM (inactive) | 38.5 µM (inactive) | 14.1 µM (inactive) | 20 µM (inactive) | 20.9 µM (inactive) | 24.3 µM (inactive) | 17.2 µM (inactive)
8 | COC(=O)C(c1ccc(OC)cc1)N1C(=O)[C@@H](NC(=O)c2ccccc2)[C@H]1[C@@H](C)O (some centres undefined) | > 100 µM (inactive) | – | – | > 100 µM (inactive) | > 100 µM (inactive) | – | > 100 µM (inactive) | > 100 µM (inactive) | > 100 µM (inactive)
9 | Cc1cc(Br)ccc1NC1=CC(=O)C(=O)c2ccccc21 | > 100 µM (inactive) | 19.8 µM (inactive) | 16 µM (inactive) | > 100 µM (inactive) | 55.7 µM (inactive) | – | > 100 µM (inactive) | 31.4 µM (inactive) | 31.6 µM (inactive)
10 | CC(=O)N1CCc2[nH]c3ccccc3c2CC1 | > 100 µM (inactive) | > 100 µM (inactive) | 86.9 µM (inactive) | > 100 µM (inactive) | > 100 µM (inactive) | > 100 µM (inactive) | > 100 µM (inactive) | > 100 µM (inactive) | > 100 µM (inactive)
11 | Nc1ncnc2c1ncn2CCCC(c1ccccc1)P(=O)(O)O (centres undefined) | > 100 µM (inactive) | > 100 µM (inactive) | – | > 100 µM (inactive) | > 100 µM (inactive) | – | > 100 µM (inactive) | > 100 µM (inactive) | > 100 µM (inactive)
12 | O=c1[nH]c2cc([N+](=O)[O-])ccc2nc1/C(=N/Nc1ccccc1)C(O)c1ccccc1Cl (centres undefined) | > 100 µM (inactive) | 6.75 µM (inactive) | – | 14.9 µM (inactive) | 28.1 µM (inactive) | – | > 100 µM (inactive) | 34.8 µM (inactive) | > 100 µM (inactive)
13 | O=C(O)C#CCO | – | > 100 µM (inactive) | – | – | > 100 µM (inactive) | > 100 µM (inactive) | > 100 µM (inactive) | > 100 µM (inactive) | > 100 µM (inactive)
14 | CCOC(=O)C(=O)Nc1c(F)cc(F)cc1Br | > 100 µM (inactive) | > 100 µM (inactive) | – | > 100 µM (inactive) | > 100 µM (inactive) | – | > 100 µM (inactive) | – | > 100 µM (inactive)
15 | CCc1cccc(C(C)CC)c1NC(=O)C(=O)C(CC(=O)Nc1ccc(Cl)c(Cl)c1)C(=O)OC (centres undefined) | > 100 µM (inactive) | 36.8 µM (inactive) | – | 19.8 µM (inactive) | 16.7 µM (inactive) | – | > 100 µM (inactive) | 15.9 µM (inactive) | –
16 | Cc1cc(CC(O)c2ccc(Cl)c(Cl)c2)nc(O)n1 (centres undefined) | 18.7 µM (inactive) | 8.49 µM (inactive) | – | 51.1 µM (inactive) | 20.9 µM (inactive) | – | 76.2 µM (inactive) | – | 18.4 µM (inactive)
17 | [O-]c1c2cc(-[n+]3c(-c4ccccc4)cc(-c4ccccc4)cc3-c3ccccc3)cc1COCCOCCOCCOCCOC2 | 44 µM (inactive) | – | 57.3 µM (inactive) | 31.3 µM (inactive) | 21.2 µM (inactive) | – | – | 45.9 µM (inactive) | –
18 | CCC(/C=C/C1OC(=O)C=CC1C)=C\C(C)C/C=C/C(C)=C/C(C)C(=O)C(C)C(O)C(C)C/C(C)=C/C(=O)O (centres undefined) | 1.43 µM (inactive) | 0.847 µM (active) | 6.04 µM (inactive) | 4.13 µM (inactive) | – | – | 3.21 µM (inactive) | 1.1 µM (active) | –
19 | O=C1/C(=C/c2ccccc2)CN(C(=O)Oc2ccc([N+](=O)[O-])cc2)C/C1=C\c1ccccc1 | 1.79 µM (inactive) | 2.11 µM (inactive) | > 10 µM (inactive) | 4.69 µM (inactive) | 2.02 µM (inactive) | – | 5.16 µM (inactive) | 0.883 µM (active) | > 10 µM (inactive)
20 | O=[N+]([O-])c1ccc(-c2ccc(/C=N/n3c(S)nnc3-c3ccc(Cl)cc3)o2)cc1 | 41.6 µM (inactive) | 95.3 µM (inactive) | > 100 µM (inactive) | 28 µM (inactive) | 22.5 µM (inactive) | > 37.4 µM (inactive) | > 50.6 µM (inactive) | 22.9 µM (inactive) | 19.5 µM (inactive)
21 | N=C(N)NS(=O)(=O)c1ccc(NC(=O)c2cccc3c(Nc4ccc(S(=O)(=O)N=C(N)N)cc4)c4ccc(Cl)cc4nc23)cc1 | 67.1 µM (inactive) | 31.2 µM (inactive) | > 100 µM (inactive) | 74.8 µM (inactive) | 33 µM (inactive) | – | 81.3 µM (inactive) | > 100 µM (inactive) | 67.3 µM (inactive)
22 | COC(OC)[C@@H](C)[C@H](O)[C@](C)(O)C1OC(C)(C)OC(C(C)C=C(C)C)C1C (some centres undefined) | > 100 µM (inactive) | 94.6 µM (inactive) | > 100 µM (inactive) | > 100 µM (inactive) | > 100 µM (inactive) | – | > 100 µM (inactive) | > 100 µM (inactive) | > 100 µM (inactive)
23 | Cc1cc(N(CCC#N)CCC#N)ccc1/C=C/C(=O)Nc1cccc(Cl)c1 | > 100 µM (inactive) | > 100 µM (inactive) | – | 87.1 µM (inactive) | 29.7 µM (inactive) | > 100 µM (inactive) | – | > 100 µM (inactive) | > 100 µM (inactive)
24 | CC1(C)CC[C@]2(C(=O)O)CCC3(C)C(=CCC4[C@@]5(C)CC[C@H](OC6OCC(O)C(O)C6OC6OC(CO)C(O)C(O)C6O)C(C)(C)C5CC[C@]43C)C2C1 (some centres undefined) | 8.61 µM (inactive) | 2.04 µM (inactive) | 1.95 µM (inactive) | 2.02 µM (inactive) | 1.9 µM (inactive) | 1.74 µM (inactive) | 2.76 µM (inactive) | 2.06 µM (inactive) | 1.94 µM (inactive)
25 | Cc1nc(Nc2ccc(Cl)c(Cl)c2)sc1C(/C=C/c1ccc2c(c1)OCO2)=N/Nc1ccc([N+](=O)[O-])cc1[N+](=O)[O-] | > 100 µM (inactive) | 51.8 µM (inactive) | – | > 100 µM (inactive) | > 68.5 µM (inactive) | – | 2.27 µM (inactive) | 32 µM (inactive) | 13.9 µM (inactive)
